The text below walks through data of patent US11976075B2, “Inhibitors of the MYST family of lysine acetyl transferases” (Isosterix, Inc., priority 2022, dated 2024).

Broadly, the IC50 is the concentration at which inhibition is half-maximal.

The target of one assay is T1, Recombinant KAT6A/MOZ (488-778) protein (Homo sapiens, UniProt Q92794).
T1 construct: Recombinant KAT6A/MOZ (488-778) protein (Active motif, Catalog #81223); purchased Active Motif 81223
T1 sequence (Q92794 488-778): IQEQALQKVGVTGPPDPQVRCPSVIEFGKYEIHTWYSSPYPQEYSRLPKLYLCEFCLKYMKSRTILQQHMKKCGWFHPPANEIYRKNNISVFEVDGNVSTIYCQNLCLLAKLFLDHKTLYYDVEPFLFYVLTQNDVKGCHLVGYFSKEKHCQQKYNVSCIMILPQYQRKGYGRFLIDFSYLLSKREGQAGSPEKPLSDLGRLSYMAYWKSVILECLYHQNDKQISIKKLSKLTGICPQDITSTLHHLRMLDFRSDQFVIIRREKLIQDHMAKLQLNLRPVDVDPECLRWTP
Nature of the assay: Kat6a AlphaLISA Inhibition Screening Assay. It is filed as biochemical. Particulars: 10′ pre-incubation; Table 2; read-out: Kat6A biochemical assay: IC50. In outline: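 Recombinant KAT6A (488-778), 25 nM, was preincubated with compound (10-point dose response) for 60 or 10 min. It then reacted 120 min at room temperature with 200 nM biotin-H3(1-21) peptide and 400 nM acetyl-CoA, pH 8.0, with 330 nM TSA present. Acetylation was detected by AlphaLISA (anti-acetyl-lysine acceptor, streptavidin donor beads).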
For orientation: Bead proximity is the source of the signal in Alpha formats.
For `C#CC(=O)NCc1ccn(Cc2cc(OC)c3c(NS(=O)(=O)CC4CCCCC4)noc3c2)n1` [Synthetic Example 8, N-((1-((3-((cyclohexylmethyl)sulfonamido)-4-methoxybenzo[d]isoxazol-6-yl)methyl)-1H-pyrazol-3-yl)methyl)propiolamide], the half-maximal inhibitory concentration (IC50) was at most 10 µM.

As for `C=CC(=O)NCc1ccnc(-c2cc(C)cc(C(=O)NNS(=O)(=O)c3ccccc3F)c2)c1` [compound 12], the half-inhibitory concentration (IC50) is at most 10 µM.

The assay is the same for the next values; noted with them: 10′ pre-incubation; Table 3; read-out: Kat6A Biochemical assay: IC50.
For the compound `COc1cc(Cn2cccn2)cc2[nH]nc(NS(=O)(=O)c3ccccc3F)c12` [compound 124, N-(6-((1H-pyrazol-1-yl)methyl)-4-methoxy-1H-indazol-3-yl)-2-fluorobenzenesulfonamide], the half-inhibitory concentration (IC50) is 20 to 50 µM.

Consider `COc1cccc(OC)c1S(=O)(=O)Nc1n[nH]c2cc(Cn3cccn3)cc(OC)c12` [compound 125, N-(6-((1H-pyrazol-1-yl)methyl)-4-methoxy-1H-indazol-3-yl)-2,6-dimethoxybenzenesulfonamide], for which the IC50 is at most 10 µM.

Consider `COc1cc(Cn2cccn2)cc2c1c(NS(=O)(=O)CC1CCCCC1)nn2C` [compound 121, N-(6-((1H-pyrazol-1-yl)methyl)-4-methoxy-1-methyl-1H-indazol-3-yl)-1-cyclohexylmethanesulfonamide], for which the IC50 was 10 to 20 µM.

The assay is the same for the next values; noted with them: 60′ pre-incubation; Table 2; read-out: Kat6A biochemical assay: IC50.
On to `C=CC(=O)N1C[C@H]2CN(Cc3cc(OC)c4c(NS(=O)(=O)c5ccccc5OC)noc4c3)C[C@H]2C1` [Synthetic Example 50, N-(6-(((3aR,6aS)-5-acryloylhexahydropyrrolo[3,4-c]pyrrol-2(1H)-yl)methyl)-4-methoxybenzo[d]isoxazol-3-yl)-2-methoxybenzenesulfonamide], for which the IC50 is at most 10 µM.

Turning to `C=CS(=O)(=O)N1CCC(c2ccnc(-c3cc(C)cc(C(=O)NNS(=O)(=O)c4ccccc4F)c3)c2)CC1` [Synthetic Example 42, 2-fluoro-N′-(3-methyl-5-(4-(1-(vinylsulfonyl)piperidin-4-yl)pyridin-2-yl)benzoyl)benzenesulfonohydrazide], the IC50 is at most 10 µM.

In the case of `COc1ccccc1S(=O)(=O)Nc1noc2cc(CN3CCC(C(=O)NCC#N)CC3)cc(OC)c12` [Synthetic Example 63, N-(cyanomethyl)-1-((4-methoxy-3-((2-methoxyphenyl)sulfonamido)benzo[d]isoxazol-6-yl)methyl)piperidine-4-carboxamide], the IC50 was above 10 µM.

Take `C=CC(=O)NC1CCN(Cc2cc(OC)c3c(NS(=O)(=O)c4ccccc4OC)noc3c2)CC1` [Synthetic Example 49, N-(1-((4-methoxy-3-((2-methoxyphenyl)sulfonamido)benzo[d]isoxazol-6-yl)methyl)piperidin-4-yl)acrylamide]: the IC50 was at most 10 µM.

In the case of `C#CC(=O)NC1CCN(Cc2cc(OC)c3c(NS(=O)(=O)c4ccccc4OC)noc3c2)CC1` [Synthetic Example 64], the IC50 was at most 10 µM.

With `C#CC(=O)NCC(=O)NCc1cnn(Cc2cc(OC)c3c(NS(=O)(=O)c4ccccc4OC)noc3c2)c1` [Synthetic Example 60, N-(2-(((1-((4-methoxy-3-((2-methoxyphenyl)sulfonamido)benzo[d]isoxazol-6-yl)methyl)-1H-pyrazol-4-yl)methyl)amino)-2-oxoethyl)propiolamide], the half-inhibitory concentration (IC50) is at most 10 µM.

For the compound `COC/C=C/C(=O)NCc1cnn(Cc2cc(OC)c3c(NS(=O)(=O)c4ccccc4OC)noc3c2)c1` [Synthetic Example 54, (E)-4-methoxy-N-((1-((4-methoxy-3-((2-methoxyphenyl)sulfonamido)benzo[d]isoxazol-6-yl)methyl)-1H-pyrazol-4-yl)methyl)but-2-enamide], the IC50 is at most 10 µM.

In the case of `C#CC(=O)NCc1cnn(Cc2cc(OC)c3c(NS(=O)(=O)c4cccc(OC)c4)noc3c2)c1` [Synthetic Example 35, N-((1-((4-methoxy-3-((3-methoxyphenyl)sulfonamido)benzo[d]isoxazol-6-yl)methyl)-1H-pyrazol-4-yl)methyl)propiolamide], the IC50 is at most 10 µM.

In the case of `C=C(F)C(=O)NCc1ccn(Cc2cc(OC)c3c(NS(=O)(=O)CC4CCCCC4)noc3c2)n1` [Synthetic Example 23, N-((1-((3-((cyclohexylmethyl)sulfonamido)-4-methoxybenzo[d]isoxazol-6-yl)methyl)-1H-pyrazol-3-yl)methyl)-2-fluoroacrylamide], the half-maximal inhibitory concentration (IC50) is at most 10 µM.

The same assay, now with this note: 60′ pre-incubation; Table 3; read-out: Kat6A Biochemical assay: IC50.
On to `C#CC(=O)N1CCN(c2cccc(-c3cc(OC)c4c(NS(=O)(=O)c5cc(CC)ccc5OC)noc4c3)c2)CC1` [compound 98, 5-ethyl-2-methoxy-N-(4-methoxy-6-(3-(4-propioloylpiperazin-1-yl)phenyl)benzo[d]isoxazol-3-yl) benzenesulfonamide], for which the IC50 is at most 10 µM.

Turning to `C#CC(=O)NCCOCc1cc(OC)c2c(NS(=O)(=O)c3cc(CC)ccc3OC)noc2c1` [compound 88, N-(2-((3-((5-ethyl-2-methoxyphenyl)sulfonamido)-4-methoxybenzo[d]isoxazol-6-yl)methoxy)ethyl)propiolamide], the IC50 was at most 10 µM.

Consider `C#CC(=O)N1CCC(c2cccc(-c3cc(OC)c4c(NS(=O)(=O)c5c(OC)cccc5OC)noc4c3)c2)C1` (stereo not drawn) [compound 87, 2,6-dimethoxy-N-(4-methoxy-6-(3-(1-propioloylpyrrolidin-3-yl)phenyl)benzo[d]isoxazol-3-yl)benzenesulfonamide], for which the IC50 was at most 10 µM.

For the compound `C#CC(=O)N1CCN(c2ccnc(-c3cc(C)cc(C(=O)NNS(=O)(=O)c4ccccc4F)c3)c2)CC1` [compound 103, 2-fluoro-N′-(3-methyl-5-(4-(4-propioloylpiperazin-1-yl)pyridin-2-yl)benzoyl) benzenesulfonohydrazide], the IC50 is at most 10 µM.

Take `C=CS(=O)(=O)NCCCOCc1cc(OC)c2c(NS(=O)(=O)c3cc(CC)ccc3OC)noc2c1` [compound 90, 5-ethyl-2-methoxy-N-(4-methoxy-6-((3-(vinylsulfonamido)propoxy)methyl)benzo[d]isoxazol-3-yl)benzenesulfonamide]: the IC50 was at most 10 µM.

`COc1ccccc1S(=O)(=O)Nc1noc2cc(Cn3ncc4c3CN(S(=O)(=O)c3c(F)c(F)c(F)c(F)c3F)C4)cc(OC)c12` [compound 82]: the half-maximal inhibitory concentration (IC50) is at most 10 µM.

For the compound `C#CC(=O)NCc1cnn(Cc2cc(OC)c3c(NS(=O)(=O)c4ccccc4OC)n[nH]c3c2)c1` [compound 76, N-((1-((4-methoxy-3-((2-methoxyphenyl)sulfonamido)-1H-indazol-6-yl)methyl)-1H-pyrazol-4-yl)methyl)propiolamide], the IC50 was at most 10 µM.

Turning to `C#CC(=O)N1CCN(c2cccc(-c3cc4onc(NS(=O)(=O)c5c(OC)cccc5OC)c4cc3C)c2)CC1` [compound 120, 2,6-dimethoxy-N-(5-methyl-6-(3-(4-propioloylpiperazin-1-yl)phenyl)benzo[d]isoxazol-3-yl) benzenesulfonamide], the IC50 was at most 10 µM.

For `C#CC(=O)N1CCN(c2cnc(-c3cc(OC)c4c(NS(=O)(=O)c5c(OC)cccc5OC)noc4c3)s2)CC1` [compound 102, 2,6-dimethoxy-N-(4-methoxy-6-(5-(4-propioloylpiperazin-1-yl)thiazol-2-yl)benzo[d]isoxazol-3-yl)benzenesulfonamide], the half-inhibitory concentration (IC50) is at most 10 µM.

In the case of `C#CC(=O)N1CCN(c2csc(-c3cc(OC)c4c(NS(=O)(=O)c5c(OC)cccc5OC)noc4c3)n2)CC1` [compound 118, 2,6-dimethoxy-N-(4-methoxy-6-(4-(4-propioloylpiperazin-1-yl)thiazol-2-yl)benzo[d]isoxazol-3-yl)benzenesulfonamide], the 50% inhibitory concentration (IC50) is at most 10 µM.
